In the supplement of paper PMC10307832:

Columns and labels:
Assay in all cases: relative viability (nuclei count vs DMSO), 5 days (fraction); higher = more cells survive
R406 + Pictilisib = compound: COc1cc(Nc2ncc(F)c(Nc3ccc4c(n3)NC(=O)C(C)(C)O4)n2)cc(OC)c1OC [R406] + CS(=O)(=O)N1CCN(Cc2cc3nc(-c4cccc5[nH]ncc45)nc(N4CCOCC4)c3s2)CC1 [Pictilisib] (partner 1 µM)
In short: (§1)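 Each reported value is a median over duplicate plates. It expresses relative viability: treated-well nuclei count divided by vehicle-well nuclei count. Lung cancer cell lines in 1536-well plates were dosed by pin tool a day after seeding, alone with one drug or with a fixed anchor-drug dose plus five library-drug doses (not always all listed) in √10 steps, and nuclei were counted after 5 days.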

Daporinad + Foretinib = compound: O=C(/C=C/c1cccnc1)NCCCCC1CCN(C(=O)c2ccccc2)CC1 [Daporinad] + COc1cc2c(Oc3ccc(NC(=O)C4(C(=O)Nc5ccc(F)cc5)CC4)cc3F)ccnc2cc1OCCCN1CCOCC1 [Foretinib] (partner 0.25 µM)
In short: as §1

Daporinad + Phenformin = compound: O=C(/C=C/c1cccnc1)NCCCCC1CCN(C(=O)c2ccccc2)CC1 [Daporinad] + N=C(N)NC(=N)NCCc1ccccc1 [Phenformin] (partner 250 µM)
In short: as §1

Daporinad + Pemetrexed = compound: O=C(/C=C/c1cccnc1)NCCCCC1CCN(C(=O)c2ccccc2)CC1 [Daporinad] + Nc1nc2[nH]cc(CCc3ccc(C(=O)N[C@@H](CCC(=O)O)C(=O)O)cc3)c2c(=O)[nH]1 [Pemetrexed] (partner 0.2 µM)
In short: as §1

Q: How did the relative viability (R406 + Pictilisib; first compound 0.08 µM) turn out when UMC-11 was run?
A: Its relative viability is 0.864.

Q: And the relative viability (R406 + Pictilisib; first compound 0.253 µM)?
A: The relative viability was 1.07.

Q: And the relative viability (R406 + Pictilisib; first compound 0.8 µM)?
A: Its relative viability is 0.863.

Q: What about the relative viability (R406 + Pictilisib; first compound 2.53 µM) of the same cell line?
A: The relative viability was 0.568.

Q: And the relative viability (R406 + Pictilisib; first compound 8 µM)?
A: The relative viability was 0.369.

Q: What about the relative viability (Daporinad + Foretinib; first compound 0.0005 µM) of the same cell line?
A: Its relative viability is 1.11.

Q: And the relative viability (Daporinad + Foretinib; first compound 0.001581 µM)?
A: The relative viability was 1.05.

Q: What about the relative viability (Daporinad + Foretinib; first compound 0.005 µM) of the same cell line?
A: The relative viability was 1.34.

Q: And the relative viability (Daporinad + Foretinib; first compound 0.01581 µM)?
A: Its relative viability is 1.22.

Q: And the relative viability (Daporinad + Phenformin; first compound 0.0005 µM)?
A: The relative viability was 0.266.

Q: And the relative viability (Daporinad + Phenformin; first compound 0.001581 µM)?
A: Its relative viability is 0.348.

Q: What about the relative viability (Daporinad + Phenformin; first compound 0.005 µM) of the same cell line?
A: The relative viability was 0.353.

Q: What about the relative viability (Daporinad + Phenformin; first compound 0.01581 µM) of the same cell line?
A: Its relative viability is 0.367.

Q: What about the relative viability (Daporinad + Pemetrexed; first compound 0.0005 µM) of the same cell line?
A: The relative viability was 0.746.

Q: And the relative viability (Daporinad + Pemetrexed; first compound 0.001581 µM)?
A: The relative viability was 0.83.

Q: What about the relative viability (Daporinad + Pemetrexed; first compound 0.005 µM) of the same cell line?
A: The relative viability was 0.847.

Q: What about the relative viability (Daporinad + Pemetrexed; first compound 0.01581 µM) of the same cell line?
A: The relative viability was 0.773.
